This is an account of results in publication PMC9088392 (RSC Advances, 2022).

The assay deals with T1, PaER (Ogataea polymorpha, UniProt A0A1B7SQN2).
T1 sequence (A0A1B7SQN2 1-402): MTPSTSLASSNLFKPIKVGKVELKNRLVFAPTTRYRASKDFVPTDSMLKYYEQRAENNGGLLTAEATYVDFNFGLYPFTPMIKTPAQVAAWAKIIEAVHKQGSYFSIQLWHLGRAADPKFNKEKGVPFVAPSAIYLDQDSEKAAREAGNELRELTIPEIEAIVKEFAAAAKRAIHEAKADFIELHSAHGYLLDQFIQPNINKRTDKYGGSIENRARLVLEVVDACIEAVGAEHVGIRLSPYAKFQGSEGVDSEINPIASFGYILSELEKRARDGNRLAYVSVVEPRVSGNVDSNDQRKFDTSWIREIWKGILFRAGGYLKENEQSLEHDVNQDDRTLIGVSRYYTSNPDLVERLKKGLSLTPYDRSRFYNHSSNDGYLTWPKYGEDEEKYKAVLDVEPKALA
Put plainly: flavin released from purified enzyme by heat, RP-HPLC. Type of assay: binding. As to conditions: non-covalent flavin co-purified with the enzyme.

`Cc1cc2nc3c(=O)[nH]c(=O)nc-3n(C[C@H](O)[C@H](O)[C@H](O)COP(=O)(O)O)c2cc1C` [FMN]: the “flavin released from purified enzyme by heat, RP-HPLC” value was “yellow color as expected for FMN-containing protein and was also confirmed by HPLC”.
